Assay results from patent publication US20120214830A1, “BIOLOGICAL MARKERS PREDICTIVE OF ANTI-CANCER RESPONSE TO INSULIN-LIKE GROWTH FACTOR-1 RECEPTOR KINASE INHIBITORS IN HEPATOCELLULAR CARCINOMA” (OSI Pharmaceuticals, LLC, priority 2011, published 2012).

Tests used:
[1] = tested on: HLF; assay: Cell Titer-Glo proliferation assay, 72 h; format: cell-based; conditions: Homo sapiens, HLF cells
Method: (§1) Two sensitive epithelial cell lines Hep3B (A), JHH-7 (B), one insensitive epithelial cell line JHH-1(C) or one insensitive mesenchymal-like cell line HLF (D) were treated serial dilution of OSI-906 in the presence of Erlotinib for 72 hours, and sensitivity to treatment was measured by proliferation assays.
(§2) Cell lines: Twenty-one HCC cell lines were purchased from either ATCC (HepG2, Hep3B, PLC/PRF/5, SK-Hepl, SNU-182, SNU-387, SNU-398, SNU-423, SNU-449, SNU-475) or Health Science Research Resources Bank (Japan) (HUH-1, HUH-6, HUH-7, HLE, HLF, JHH-1, JHH-2, JHH-4, JHH-5, JHH-6, JHH-7). All the cell lines were maintained in media as described by the vendors. For growth inhibition assays, cells were plated and allowed to proliferate for 24 hours. After 24 hours, cells had reached approximately 15% confluency, at which time serial dilutions of OSI-906 were added and the cells grown for a further 72 hours. Cell viability was assayed using the Cell Titer-Glo reagent (Promega Corp., Madison, Wis.).
(§3) Proliferation Assay. Proliferation was assayed using Cell Titer Glo assays (Promega) and was determined 72 hours following dosing with OSI-906. The basis of the assay is a luminescent quantitation of ATP present in a cell culture plate well. In essence, the greater the number of viable cells in the well, the greater the level of ATP present. The assay utilizes a substrate that binds ATP to produce a luminescent signal, which can be read on a luminometer. Unless otherwise noted, the manufacturer's instructions were followed exactly. Briefly, on Day 1, cells were plated in 120 μl of 10% serum-containing growth media at a density of 4000 cells/well in a white polystyrene 96 well assay plate. On day 2, cells were treated with 15 μl of 10× concentration of the IGF-1R inhibitor (e.g. OSI-906) or DMSO alone for a final well volume of 150 μl. After 72 h incubation with the inhibitor, the cells were assayed. Results were calculated as a fraction of the DMSO controlled cells.

[2] = tested on: Hep 3B; assay: Cell Titer-Glo proliferation assay, 72 h; format: cell-based; conditions: Homo sapiens, Hep3B, Hep 3B cells
Method: as §1, §2, §3

[3] = tested on: JHH-1; assay: Cell Titer-Glo proliferation assay, 72 h; format: cell-based; conditions: Homo sapiens, JHH1, JHH-1 cells
Method: as §1, §2, §3

[4] = tested on: JHH-7; assay: Cell Titer-Glo proliferation assay, 72 h; format: cell-based; conditions: Homo sapiens, JHH7, JHH-7 cells
Method: as §1, §2, §3

[5] = tested on: JHH-2; assay: Cell Titer-Glo proliferation assay, 72 h; format: cell-based; conditions: Homo sapiens, JHH-2 cells
Method: as §3, with “Cell lines: Twenty-one HCC cell lines were purchased from either ATCC (HepG2, Hep3B, PLC/PRF/5, SK-Hepl, SNU-182, SNU-387, SNU-398, SNU-423, SNU-449, SNU-475) or Health Science Research Resources Bank (Japan) (HUH-1, HUH-6, HUH-7, HLE, HLF, JHH-1, JHH-2, JHH-4, JHH-5, JHH-6, JHH-7). All the cell lines were maintained in media as described by the vendors. For growth inhibition assays, cells were plated and allowed to proliferate for 24 hours. After 24 hours, cells had reached approximately 15% confluency, at which time serial dilutions of OSI-906 were added and the cells grown for a further 72 hours. Cell viability was assayed using the Cell Titer-Glo reagent (Promega Corp., Madison, Wis.). Proliferation Assay.” for “Proliferation Assay.”

[6] = tested on: SNU-182; assay: Cell Titer-Glo proliferation assay, 72 h; format: cell-based; conditions: Homo sapiens, SNU-182 cells
Method: as §3, with “Cell lines: Twenty-one HCC cell lines were purchased from either ATCC (HepG2, Hep3B, PLC/PRF/5, SK-Hepl, SNU-182, SNU-387, SNU-398, SNU-423, SNU-449, SNU-475) or Health Science Research Resources Bank (Japan) (HUH-1, HUH-6, HUH-7, HLE, HLF, JHH-1, JHH-2, JHH-4, JHH-5, JHH-6, JHH-7). All the cell lines were maintained in media as described by the vendors. For growth inhibition assays, cells were plated and allowed to proliferate for 24 hours. After 24 hours, cells had reached approximately 15% confluency, at which time serial dilutions of OSI-906 were added and the cells grown for a further 72 hours. Cell viability was assayed using the Cell Titer-Glo reagent (Promega Corp., Madison, Wis.). Proliferation Assay.” for “Proliferation Assay.”

[7] = tested on: HCC cell lines (HepG2, Hep3B, HUH-1, HUH-6, HUH-7, JHH-5, JHH-7); assay: Cell-titer glo proliferation assay, summary for the seven sensitive HCC cell lines; format: cell-based, human
Method: as §2
Proliferation Assay. Proliferation was assayed using Cell Titer Glo assays (Promega) and was determined 72 hours following dosing with OSI-906. The basis of the assay is a luminescent quantitation of ATP present in a cell culture plate well. […] The assay utilizes a substrate that binds ATP to produce a luminescent signal, which can be read on a luminometer. […] Results were calculated as a fraction of the DMSO controlled cells.
To test cell sensitivity of HCC cells to the IGF-1R kinase inhibitor OSI-906, twenty-one HCC cell lines were treated with different concentration of OSI-906, and cell proliferation was measured by cell-titer glo assays (FIG. 1). […]

[8] = tested on: HUH-1, JHH-5 and HepG2 cells; assay: Proliferation assay with OSI-906 after TGFβ treatment; format: cell-based, human; conditions: cells grown with 10 ng/ml TGFβ for 10 days, HUH-1, JHH-5, HepG2
Method: as §3

Structure (SMILES): C[C@]1(O)C[C@@H](c2nc(-c3ccc4ccc(-c5ccccc5)nc4c3)c3c(N)nccn32)C1 [OSI-906, cis-3-[8-amino-1-(2-phenyl-quinolin-7-yl)-imidazo[1,5-a]pyrazin-3-yl]-1-methyl-cyclobutanol]
- inhibition at 5 µM ([1]; 5 μM OSI-906, 72 h): < 40%
- EC50 ([1]; 72 h OSI-906): > 10000 nM
- inhibition at 5 µM ([2]; 5 μM OSI-906, 72 h): 67%
- EC50 ([2]; 72 h OSI-906): 350 nM
- inhibition at 5 µM ([3]; 5 μM OSI-906, 72 h): < 40%
- EC50 ([3]; 72 h OSI-906): > 10000 nM
- inhibition at 5 µM ([4]; 5 μM OSI-906, 72 h): 70%
- EC50 ([4]; 72 h OSI-906): 940 nM
- inhibition at 5 µM ([5]; 5 μM OSI-906, 72 h): < 40%
- EC50 ([5]; 72 h OSI-906): > 10000 nM
- inhibition at 5 µM ([6]; 5 μM OSI-906, 72 h): < 40%
- EC50 ([6]; 72 h OSI-906): > 10000 nM
- maximum inhibition [7]: > 40%
- EC50 ([7]; Homo sapiens): < 1000 nM
- HCC cell sensitivity to OSI-906 after TGFβ treatment [8]: decreased
